# Source: US20240238269A1
# Like-named read-outs stand apart in the source and are kept apart here.
# Tests used:
# in vitro [1] = details: human
# in vitro [2] = details: dog
# [3] = system: Middle East Respiratory Syndrome Coronavirus (MERS-COV); assay: microbe, parasite or virus in culture; assay type: cell-based; details: Vero 76
# Tacaribe Virus (TCRV) = assay: microbe, parasite or virus in culture; assay type: cell-based
# in vitro [4] = details: human; remark: listed apart in the source
# in vitro [5] = details: African green monkey
# HPV16 [6] = assay: microbe, parasite or virus in culture; details: Human papillomavirus 16, C-33-A
# Huh7 = details: human
# other viruses = assay: Antiviral activity against other (non-HPV) viruses, overall conclusion; assay type: cell-based
# HPV11 [7] = assay: microbe, parasite or virus in culture; details: human papillomavirus 11, C-33-A
# in vitro [8] = details: human; remark: listed apart in the source
# HPV6 = HPV6 transient transfection reporter plasmid replication assay; details: for EC50 / EC90: Alphapapillomavirus 10, C-33-A
# HPV18 [9] = details: Human Papillomavirus 18 KC470230.1, C-33 A
# [10] = system: Human Coronavirus (α) 229E; assay: Antiviral activity against Human Coronavirus (α); assay type: cell-based
# [11] = system: human papillomavirus (HPV); assay: Antiviral activity against human papillomavirus (HPV), overall conclusion; assay type: cell-based
# Method: When the SI50 value>10, the compound was determined to be active against the virus.
# [12] = system: Rift Valley Fever Virus (RVFV); assay: microbe, parasite or virus in culture; assay type: cell-based
# Herpes Simplex Virus 2 = assay: Antiviral activity against Herpes Simplex Virus 2; assay type: cell-based
# HPV18 [13] = assay: microbe, parasite or virus in culture; details: human papillomavirus 18, C-33-A
# Dengue Virus 2 = assay: Antiviral activity against Dengue Virus 2; assay type: cell-based
# HPV16 [14] = details: Human Papillomavirus 16 KP212151.1, C-33 A
# HPV11 [15] = details: Human Papillomavirus 11 HE611260.1, C-33 A
# [16] = system: Human Coronavirus (β) OC43; assay: Antiviral activity against Human Coronavirus (β); assay type: cell-based
# Herpes Simplex Virus 1 = assay: Antiviral activity against Herpes Simplex Virus 1; assay type: cell-based
# [17] = system: Chikungunya virus (CHIKV); assay: Antiviral activity against Chikungunya Virus; assay type: cell-based
# Varicella-zoster Virus = assay: Antiviral activity against Varicella-zoster Virus; assay type: cell-based
# Influenza A H1N1 = assay: Antiviral activity against Influenza A H1N1; assay type: cell-based
# [18] = system: Novel coronavirus (SARS-COV-2); assay: Antiviral activity against Novel Coronavirus; assay type: cell-based
# [19] = Human Papillomavirus 16 KP212151.1, C-33 A, 0.001-250 μM
# [20] = Human Papillomavirus 16 KP212151.1, C-33 A, 0.048-150 μM
# [21] = Human Papillomavirus 6 FR751330.1, C-33 A
# [22] = HPV16 strain KP212151.1, C-33 A, concentration range 0.001-250 μM
smiles,measurement,setting,value
O=[N+]([O-])c1ccc(O)c2ncccc12,CC50 at 48 h,in vitro [1],55.5 µM
same,CC50,in vitro [2],1.2 µg/mL
same,SI50 (CC50/EC50),[3]; MERS Coronavirus EMC,0
same,EC50,[3]; Middle East respiratory syndrome-related coronavirus,> 0.32 µg/mL
same,EC50,"Tacaribe Virus (TCRV); Mammarenavirus tacaribeense, Vero",< 0.1 µg/mL
same,SI50 (CC50/EC50),"Tacaribe Virus (TCRV); Tacaribe Virus TRVL 11573, Vero",1
same,CC50,in vitro [4],0.37 µg/mL
same,CC50,in vitro [5],< 0.1 µg/mL
same,EC50,HPV16 [6]; [19],260 nM
same,EC90,HPV16 [6]; [19],540 nM
same,EC50,HPV16 [6]; [20],2820 nM
same,EC90,HPV16 [6]; [20],5110 nM
same,CC50,Huh7,0.4 µg/mL
same,inhibitory activity against other viruses,other viruses,not observed against other viruses
same,EC50,HPV11 [7],1040 nM
same,EC90,HPV11 [7],2.99 µM
same,CC50,in vitro [8],0.42 µg/mL
same,EC50,HPV6,860 nM
same,EC90,HPV6,5.41 µM
same,SI50 (CC50/EC50),HPV6; [21],55
same,SI90,HPV6; [21],9
same,SI50 (CC50/EC50),HPV18 [9],64
same,SI90,HPV18 [9],16
same,SI50 (CC50/EC50),[10],1.3
same,EC50,"[10]; unidentified human coronavirus, Huh-7",0.32 µg/mL
same,antiviral activity compared with the positive control drug,"[11]; HPV, Tables 1 and 2",better than that of the positive control drug
same,inhibitory activity against HPV,[11]; active when SI50 value>10,specific inhibitory activity against HPV
same,SI50 (CC50/EC50),"[12]; Rift Valley Fever Virus MP-12, Vero 76",1
same,EC50,"[12]; Rift Valley fever virus, Vero 76",> 0.16 µg/mL
same,SI50 (CC50/EC50),Herpes Simplex Virus 2,<4
same,EC50,Herpes Simplex Virus 2; Human alphaherpesvirus 2,> 1200 nM
same,EC50,HPV18 [13],1010 nM
same,EC90,HPV18 [13],3.99 µM
same,SI50 (CC50/EC50),Dengue Virus 2,1.3
same,EC50,"Dengue Virus 2; Dengue virus, Huh-7",0.32 µg/mL
same,SI50 (CC50/EC50),HPV16 [14]; 0.001-250 μM,297
same,SI90,HPV16 [14]; 0.001-250 μM,143
same,SI50 (CC50/EC50),HPV16 [14]; 0.048-150 μM,23
same,SI90,HPV16 [14]; 0.048-150 μM,13
same,SI50 (CC50/EC50),HPV11 [15],53
same,SI90,HPV11 [15],19
same,SI50 (CC50/EC50),[16],0
same,EC50,"[16]; unidentified human coronavirus, OC43",> 0.37 µg/mL
same,SI50 (CC50/EC50),Herpes Simplex Virus 1,<3.0
same,EC50,Herpes Simplex Virus 1; Human alphaherpesvirus 1,> 1200 nM
same,SI50 (CC50/EC50),[17],0
same,EC50,"[17]; Chikungunya virus, Vero 76",> 0.86 µg/mL
same,SI50 (CC50/EC50),Varicella-zoster Virus,<3
same,EC50,Varicella-zoster Virus; Human alphaherpesvirus 3,> 240 nM
same,SI50 (CC50/EC50),Influenza A H1N1,3.8
same,EC50,"Influenza A H1N1; Influenza A virus, H1N1, MDCK",0.32 µg/mL
same,SI50 (CC50/EC50),[18],3.1
same,EC50,"[18]; Severe acute respiratory syndrome coronavirus 2, Vero 76",0.32 µg/mL
Nc1nc2c(ncn2CCOCP(=O)(O)O)c(=O)[nH]1 [9-[2-(phosphonomethoxy)ethyl]guanine],EC50,HPV16 [6]; [22],280 nM
same,EC90,HPV16 [6]; [22],2300 nM
same,EC50,HPV11 [7],1030 nM
same,EC90,HPV11 [7],4.47 µM
same,EC50,HPV6,560 nM
same,EC90,HPV6,6.35 µM
same,EC50,HPV18 [13],630 nM
same,EC90,HPV18 [13],> 150 µM
